Laboratory results: patent US20090093469A1, “Phenylaminopropanol Derivatives and Methods of Their Use” (WYETH, priority 2004, published 2009)
Where a name gives a salt, the structure may show the parent alone.

Each compound was assayed against T1, hNET (Homo sapiens, UniProt P23975) (assay: Norepinephrine (NE) uptake assay in MDCK-Net6 cells stably transfected with human hNET). Details: MDCK-Net6, read-out: % Inhibition @ 1 μM (hNET).
T1 construct: expressed in transfected cells
Format: cell-based

T1 sequence (P23975 whole entry): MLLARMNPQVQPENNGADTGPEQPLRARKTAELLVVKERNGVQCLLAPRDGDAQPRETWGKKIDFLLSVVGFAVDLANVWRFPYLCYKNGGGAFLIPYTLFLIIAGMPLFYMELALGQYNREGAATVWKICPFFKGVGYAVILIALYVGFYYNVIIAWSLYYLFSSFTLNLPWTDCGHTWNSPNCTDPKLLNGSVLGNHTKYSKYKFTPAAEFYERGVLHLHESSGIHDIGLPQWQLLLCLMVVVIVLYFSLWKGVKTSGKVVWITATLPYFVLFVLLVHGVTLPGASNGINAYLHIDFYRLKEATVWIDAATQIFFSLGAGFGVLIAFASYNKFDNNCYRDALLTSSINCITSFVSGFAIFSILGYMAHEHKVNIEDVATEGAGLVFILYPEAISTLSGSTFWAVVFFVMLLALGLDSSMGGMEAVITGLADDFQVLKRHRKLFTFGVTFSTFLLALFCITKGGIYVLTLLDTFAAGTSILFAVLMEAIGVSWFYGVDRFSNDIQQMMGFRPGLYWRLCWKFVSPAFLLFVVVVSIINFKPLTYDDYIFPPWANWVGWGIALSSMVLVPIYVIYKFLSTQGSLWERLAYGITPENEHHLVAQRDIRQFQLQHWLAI

Row | Compound | inhibition at 1 µM
1 | Cc1cn([C@@H](c2ccccc2)[C@H](O)CN)c2ccccc12 [Example 178, (1S,2R)-3-amino-1-(3-methyl-1H-indol-1-yl)-1-phenylpropan-2-ol hydrochloride] | 69.2%
2 | CNC[C@@H](O)[C@H](c1cccc(F)c1)n1ccc2cccc(F)c21 [Example 183, (1S,2R)-1-(7-fluoro-1H-indol-1-yl)-1-(3-fluorophenyl)-3-(methylamino)propan-2-ol hydrochloride] | 100%
3 | CNC[C@@H](O)[C@H](c1cccc(F)c1)n1ccc2c(F)cccc21 [Example 184, (1S,2R)-1-(4-fluoro-1H-indol-1-yl)-1-(3-fluorophenyl)-3-(methylamino)propan-2-ol hydrochloride] | 99.7%
4 | CNC[C@@H](O)[C@H](c1ccccc1)n1c(=O)n(C(C)(C)C)c2ccccc21 [Example 192, 1-tert-Butyl-3-(2-hydroxy-3-methylamino-1-phenyl-propyl)-1,3-dihydro-benzoimidazol-2-one hydrochloride] | 54.6%
5 | CCCn1c(=O)n([C@@H](c2ccccc2)[C@H](O)CNC)c2ccccc21 [Example 193, 1-[(1S,2R)-2-hydroxy-3-(methylamino)-1-phenylpropyl]-3-propyl-1,3-dihydro-2H-benzimidazol-2-one hydrochloride] | 98.4%
6 | CNC[C@@H](O)[C@H](c1ccccc1)n1c(=O)n(C2CCC2)c2ccccc21 [Example 197, 1-cyclobutyl-3-[(1S,2R)-2-hydroxy-3-(methylamino)-1-phenylpropyl]-1,3-dihydro-2H-benzimidazol-2-one hydrochloride] | 97%
7 | CCCn1c(=O)n([C@@H](c2ccccc2)[C@H](O)CNC)c2cc(F)ccc21 [Example 198, 5-fluoro-3-[(1S,2R)-2-hydroxy-3-(methylamino)-1-phenylpropyl]-1-propyl-1,3-dihydro-2H-benzimidazol-2-one hydrochloride] | 97.7%
8 | CCn1c(=O)n([C@@H](c2cccc(F)c2)[C@H](O)CNC)c2ccccc21 [Example 199, 1-Ethyl-3-[1-(3-fluoro-phenyl)-2-hydroxy-3-methylamino-propyl]-1,3-dihydro-benzimidazol-2-one hydrochloride] | 99.1%
9 | CCn1c(=O)n([C@@H](c2ccccc2)[C@H](O)CNC)c2ccccc21 [Example 200, 1-Ethyl-3-[(1S,2R)-2-hydroxy-3-(methylamino)-1-phenylpropyl]-1,3-dihydro-2H-benzimidazol-2-one hydrochloride] | 97.9%
10 | CNC[C@@H](O)[C@H](c1ccccc1)n1c(=O)n(C(C)C)c2cccc(F)c21 [Example 201, 4-Fluoro-3-(2-hydroxy-3-methylamino-1-phenyl-propyl)-1-isopropyl-1,3-dihydro-benzimidazol-2-one hydrochloride] | 98.8%
11 | CNC[C@@H](O)[C@H](c1ccccc1)n1c(=O)n(C2CCCC2)c2ccccc21 [Example 202, 1-Cyclopentyl-3-[(1S,2R)-2-hydroxy-3-(methylamino)-1-phenylpropyl]-1,3-dihydro-2H-benzimidazol-2-one hydrochloride] | 92.7%

Same assay, conditions: test compound 1 μM; [3H]NE uptake, MDCK-Net6 cells; read-out: % Inhibition @ 1 μM (hNET)

Row | Compound | inhibition at 1 µM
12 | CNC[C@@H](O)[C@H](c1cc(F)cc(F)c1)N1CCc2ccccc21 [Example 158, (1S,2R)-1-(3,5-difluorophenyl)-1-(2,3-dihydro-1H-indol-1-yl)-3-(methylamino)propan-2-ol hydrochloride] | 99.6%
13 | NCC[C@@H](O)[C@H](c1cccc(F)c1)n1ccc2ccccc21 [Example 159, (1S,2R)-4-amino-1-(3-fluorophenyl)-1-(1H-indol-1-yl)butan-2-ol hydrochloride] | 93.8%
14 | CNC[C@@H](O)[C@H](c1cccc(F)c1)n1cc(-c2ccc(OC)cc2)c2ccccc21 [Example 169, (1S,2R)-1-(3-fluorophenyl)-1-[3-(4-methoxyphenyl)-1H-indol-1-yl]-3-(methylamino)propan-2-ol hydrochloride] | 72%
15 | CNC[C@@H](O)[C@H](c1cccc(F)c1)n1cc(-c2ccc(C)cc2)c2ccccc21 [Example 170, (1S,2R)-1-(3-fluorophenyl)-3-(methylamino)-1-[3-(4-methylphenyl)-1H-indol-1-yl]propan-2-ol hydrochloride] | 96.4%
16 | CNC[C@@H](O)[C@H](c1cccc(F)c1)n1cc(-c2ccc(C(C)(C)C)cc2)c2ccccc21 [Example 171, (1S,2R)-1-[3-(4-tert-butylphenyl)-1H-indol-1-yl]-1-(3-fluorophenyl)-3-(methylamino)propan-2-ol hydrochloride] | 98.3%
17 | CNC[C@@H](O)[C@H](c1cccc(F)c1)n1cc(-c2cccc(OC)c2)c2ccccc21 [Example 172, (1S,2R)-1-(3-fluorophenyl)-1-[3-(3-methoxyphenyl)-1H-indol-1-yl]-3-(methylamino)propan-2-ol hydrochloride] | 88%
18 | CNC[C@@H](O)[C@H](c1cccc(F)c1)n1cc(-c2ccc(C(F)(F)F)cc2)c2ccccc21 [Example 173, (1S,2R)-1-(3-fluorophenyl)-3-(methylamino)-1-{3-[4-(trifluoromethyl)phenyl]-1H-indol-1-yl}propan-2-ol hydrochloride] | 67.5%
19 | CNC[C@@H](O)[C@H](c1cc(F)cc(F)c1)N1CCc2ccc(F)cc21 [Example 174, (1S,2R)-1-(3,5-difluorophenyl)-1-(6-fluoro-2,3-dihydro-1H-indol-1-yl)-3-(methylamino)propan-2-ol hydrochloride] | 99.1%
20 | CNC[C@@H](O)[C@H](c1cccc(F)c1)n1cc(-c2ccccc2C(F)(F)F)c2ccccc21 [Example 175, (1S,2R)-1-(3-fluorophenyl)-3-(methylamino)-1-{3-[2-(trifluoromethyl)phenyl]-1H-indol-1-yl}propan-2-ol hydrochloride] | 99.6%
21 | CNC[C@@H](O)[C@H](c1cccc(F)c1)n1cc(-c2ccccc2OC)c2ccccc21 [Example 176, (1S,2R)-1-(3-fluorophenyl)-1-[3-(2-methoxyphenyl)-1H-indol-1-yl]-3-(methylamino)propan-2-ol hydrochloride] | 100%
22 | CNC[C@@H](O)[C@H](c1cccc(F)c1)n1cc(-c2cccc(C(F)(F)F)c2)c2ccccc21 [Example 177, (1S,2R)-1-(3-fluorophenyl)-3-(methylamino)-1-{3-[3-(trifluoromethyl)phenyl]-1H-indol-1-yl}propan-2-ol hydrochloride] | 29.9%
23 | CNC[C@@H](O)[C@H](c1ccccc1)n1cc(C)c2cccc(F)c21 [Example 179, (1S,2R)-1-(7-fluoro-3-methyl-1H-indol-1-yl)-3-(methylamino)-1-phenylpropan-2-ol hydrochloride] | 99.8%
24 | Cc1cn([C@@H](c2ccccc2)[C@H](O)CN)c2c(F)cccc12 [Example 180, (1S,2R)-3-amino-1-(7-fluoro-3-methyl-1H-indol-1-yl)-1-phenylpropan-2-ol hydrochloride] | 70.4%
25 | CNC[C@@H](O)[C@H](c1ccccc1)n1ccc2cccc(F)c21 [Example 181, (1S,2R)-1-(7-fluoro-1H-indol-1-yl)-3-(methylamino)-1-phenylpropan-2-ol hydrochloride] | 96.9%
26 | CNC[C@@H](O)[C@H](c1ccccc1)n1ccc2c(F)cccc21 [Example 182, (1S,2R)-1-(4-fluoro-1H-indol-1-yl)-3-(methylamino)-1-phenylpropan-2-ol hydrochloride] | 97.1%
27 | CNC[C@@H](O)[C@H](c1cccc(F)c1)n1ccc2cc(C(F)(F)F)ccc21 [Example 185, (1S,2R)-1-(3-fluorophenyl)-3-(methylamino)-1-[5-(trifluoromethyl)-1H-indol-1-yl]propan-2-ol hydrochloride] | 80.8%
28 | CNC[C@@H](O)[C@H](c1ccccc1)n1ccc2ccc(F)cc21 [Example 186, (1S,2R)-1-(6-fluoro-1H-indol-1-yl)-3-(methylamino)-1-phenylpropan-2-ol hydrochloride] | 96.6%
29 | CNC[C@@H](O)[C@H](c1ccccc1)n1ccc2cc(C(F)(F)F)ccc21 [Example 188, (1S,2R)-3-(methylamino)-1-phenyl-1-[5-(trifluoromethyl)-1H-indol-1-yl]propan-2-ol hydrochloride] | 71.6%
30 | CNC[C@@H](O)[C@H](c1cccc(F)c1)n1cc(C(C)(C)C)c2ccccc21 [Example 189, (1S,2R)-1-(3-tert-butyl-1H-indol-1-yl)-1-(3-fluorophenyl)-3-(methylamino)propan-2-ol] | 99.3%
31 | CNC[C@@](C)(O)[C@H](c1ccccc1)n1ccc2ccccc21 [Example 190, (1S,2R)-1-(1H-indol-1-yl)-2-methyl-3-(methylamino)-1-phenylpropan-2-ol hydrochloride] | 53.7%
32 | CNC[C@@H](O)[C@](C)(c1ccccc1)n1ccc2ccccc21 [Example 191, (2R,3S)-3-(1H-indol-1-yl)-1-(methylamino)-3-phenylbutan-2-ol hydrochloride] | 63.9%
33 | CNC[C@@H](O)[C@H](c1ccccc1)N1C(=O)C(C)(C)c2cc(Br)ccc21 [Example 194, 5-bromo-1-[(1S,2R)-2-hydroxy-3-(methylamino)-1-phenylpropyl]-3,3-dimethyl-1,3-dihydro-2H-indol-2-one hydrochloride] | 79%
34 | CNC[C@@H](O)[C@H](c1ccccc1)N1C(=O)C(C)(C)c2ccc(F)cc21 [Example 195, 6-fluoro-1-[(1S,2R)-2-hydroxy-3-(methylamino)-1-phenylpropyl]-3,3-dimethyl-1,3-dihydro-2H-indol-2-one hydrochloride] | 91%
35 | CNC[C@@H](O)[C@H](c1ccccc1)N1C(=O)C(C)(C)c2c(F)cccc21 [Example 196, 4-fluoro-1-[(1S,2R)-2-hydroxy-3-(methylamino)-1-phenylpropyl]-3,3-dimethyl-1,3-dihydro-2H-indol-2-one hydrochloride] | 94.6%
